US20150031674A1, “SERINE/THREONINE KINASE INHIBITORS” (GENENTECH, INC., priority 2013, published 2015)

Assays:
[1] = tested on: group I PAKs in EBC1 cells (MEK1 phosphorylation at S298); assay: Cellular PAK IC50 Assay: MEK1 phosphorylation at S298 by HTRF; type: cell-based; settings: Homo sapiens, EBC-1, 2 h treatment, media containing 0.1% FBS, phospho-MEK1 (S298) HTRF
Experimental: Cellular PAK IC50 Assay Protocol
Group I PAKs (PAK1-3) are activated upon binding to the Rho GTPases, Rac1 and Cdc42. Activated group I PAKs phosphorylate MEK1 at Serine 298 (S298), one of the two sites in the catalytic domain that is important for stable association between Raf and MEK1 and subsequent MAPK activation. The inhibition of group I PAKs in EBC1 cells is assessed by detecting changes in the level of MEK1 phosphorylation at S298 using homogenous time-resolved fluorescence (HTRF). Inhibitory activity was estimated by treating 2×10^4 EBC1 cells for 2 h with PAK inhibitors in media containing 0.1% FBS. Following inhibitor treatment, cells were lysed with 25 μL of 1× cellular kinase lysis buffer (Cisbio) containing 1× cellular kinase blocking reagent (Cisbio). Cellular lysis was carried out at 4° C. for 2 h with constant shaking before lysate (16 μL) was transferred to white 384-well ProxiPlates™ (Perkin Elmer). Anti-total MEK1 antibody labeled with Europium cryptate donor (1 ng/well) (Cell Signaling Technologies catalog number 2352) and anti-phospho MEK1 (S298) antibody labeled with d2 acceptor (Cell Signaling Technologies catalog number 9128) (10 ng/well) were prepared in 1× detection buffer (CisBio) and added to each well of the assay plate and allowed to incubate at RT overnight. The following day the fluorescence emission from each well was measured in EnVision® (Perkin Elmer) at an excitation of 330 nm and dual emission wavelengths of 615 nm and 665 nm. The signal in each well at 665 nm was multiplied by 10,000 and divided by the signal in the same well at 615 nm to obtain a ratio. Ratio values ([665·10,000]÷615) were plotted as a function of the concentration of compound to determine IC50 values.

[2] = target: human recombinant PAK1-KD protein (Homo sapiens, UniProt Q13153); assay: PAK1-KD (Kinase Domain) IC50 Zlyte Assay (FRET peptide substrate phosphorylation); settings: Z'-LYTE, Biological Example 1
Sequence of human recombinant PAK1-KD protein (Q13153 270-521 limits assumed): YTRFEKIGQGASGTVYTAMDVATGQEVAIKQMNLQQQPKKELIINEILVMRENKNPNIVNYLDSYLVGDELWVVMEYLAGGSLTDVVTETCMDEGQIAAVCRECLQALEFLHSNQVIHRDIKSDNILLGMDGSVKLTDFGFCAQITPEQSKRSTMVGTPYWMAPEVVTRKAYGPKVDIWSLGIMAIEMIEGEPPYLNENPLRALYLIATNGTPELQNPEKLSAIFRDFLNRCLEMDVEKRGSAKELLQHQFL
Source text: PAK1-KD (Kinase Domain) IC50 Zlyte Assay Protocol
Activity of human recombinant PAK1-KD protein may be assessed in vitro by assay of the phosphorylation of a FRET peptide substrate. Catalytically active human recombinant PAK1-KD protein is obtained by purification from Tini cells infected with a human PAK1-KD recombinant baculovirus expression vector.
The activity/inhibition of PAK1-KD was estimated by measuring the phosphorylation of a FRET peptide substrate (Ser/Thr19) labeled with Coumarin and Fluorescein using Z′-LYTE™ assay (Invitrogen). The peptide substrate is a consensus sequence ([sequence]) based on various PAK substrates reported in the scientific literature. […] Incubations were carried out at 22° C. in black polypropylene 384-well plates (Corning Costar).

| IC50 [1] | Ki [2] | SMILES |
| --- | --- | --- |
| 146 nM | – | CCNc1ncc2cc(-c3ccc(-c4cncc(C)n4)cc3Cl)c(=O)n(CCCCN)c2n1 [Example I-2, 8-(4-Aminobutyl)-6-[2-chloro-4-(6-methylpyrazin-2-yl)phenyl]-2-(ethylamino)pyrido[2,3-d]pyrimidin-7-one] |
| – | 11.9 nM | CNc1ncc2cc(-c3ccc(-c4cncc(C)n4)cc3Cl)c(=O)n(CC[C@H]3OC[C@@H](N)CO3)c2n1 [Example I-172, 8-[2-(5-amino-1,3-dioxan-2-yl)ethyl]-6-[2-chloro-4-(6-methylpyrazin-2-yl)phenyl]-2-(methylamino)pyrido[2,3-d]pyrimidin-7-one] |
| – | 12.9 nM | CNc1ncc2cc(-c3ccc(-c4cccc(C)n4)cc3Cl)c(=O)n(C[C@@H]3CNCCO3)c2n1 [Example I-173, 6-[2-chloro-4-(6-methyl-2-pyridyl)phenyl]-2-(methylamino)-8-[[(2S)-morpholin-2-yl]methyl]pyrido[2,3-d]pyrimidin-7-one] |
| – | 7.2 nM | CNc1ncc2cc(-c3ccc(-c4cccc(C)n4)cc3C)c(=O)n(CCS(=O)(=O)CCN)c2n1 [Example I-174, 8-[2-(2-aminoethylsulfonyl)ethyl]-2-(methylamino)-6-[2-methyl-4-(6-methyl-2-pyridyl)phenyl]pyrido[2,3-d]pyrimidin-7-one] |
| – | 19.8 nM | CNc1ncc2cc(-c3ccc(-c4cccc(C)n4)cc3Cl)c(=O)n(CC3CCN(C)CC3)c2n1 [Example I-175, 6-[2-chloro-4-(6-methyl-2-pyridyl)phenyl]-2-(methylamino)-8-[(1-methyl-4-piperidyl)methyl]pyrido[2,3-d]pyrimidin-7-one] |
| – | 11 nM | CNc1ncc2cc(-c3ccc(-c4cccc(C)n4)cc3Cl)c(=O)n(C[C@H]3[C@@H]4CN(C)C[C@@H]43)c2n1 [Example I-176, 6-[2-chloro-4-(6-methyl-2-pyridyl)phenyl]-2-(methylamino)-8-[[(1R,5S)-3-methyl-3-azabicyclo[3.1.0]hexan-6-yl]methyl]pyrido[2,3-d]pyrimidin-7-one] |
| – | 6.82 nM | CNc1ncc2cc(-c3ccc(-c4cncc(C)n4)cc3Cl)c(=O)n(CC[C@H]3OC[C@H](N)CO3)c2n1 [Example I-177, 8-[2-(5-amino-1,3-dioxan-2-yl)ethyl]-6-[2-chloro-4-(6-methylpyrazin-2-yl)phenyl]-2-(methylamino)pyrido[2,3-d]pyrimidin-7-one] |
| – | 13.5 nM | CNc1ncc2cc(-c3ccc(-c4cncc(C)n4)cc3Cl)c(=O)n(C[C@H]3OC[C@H](NC)CO3)c2n1 [Example I-178, 6-[2-Chloro-4-(6-methylpyrazin-2-yl)phenyl]-2-(methylamino)-8-[[5-(methylamino)-1,3-dioxan-2-yl]methyl]pyrido[2,3-d]pyrimidin-7-one] |
| – | 66.6 nM | CNc1ncc2cc(-c3ccc(-c4csc(C)n4)cc3Cl)c(=O)n(C[C@@H]3CNCCO3)c2n1 [Example I-179, 6-[2-chloro-4-(2-methylthiazol-4-yl)phenyl]-2-(methylamino)-8-[[(2S)-morpholin-2-yl]methyl]pyrido[2,3-d]pyrimidin-7-one] |
| – | 110 nM | CNc1ncc2cc(-c3ccc(-c4cncc(C)n4)cc3Cl)c(=O)n(C3CCS(=N)(=O)CC3)c2n1 (centres unmarked) [Example I-181, 6-[2-chloro-4-(6-methylpyrazin-2-yl)phenyl]-8-(1-imino-1-oxo-thian-4-yl)-2-(methylamino)pyrido[2,3-d]pyrimidin-7-one] |
| – | 44.7 nM | CNc1ncc2cc(-c3ccc(-c4csc(C)n4)cc3Cl)c(=O)n(C[C@H]3CNCCO3)c2n1 [Example I-182, 6-[2-chloro-4-(2-methylthiazol-4-yl)phenyl]-2-(methylamino)-8-[[(2R)-morpholin-2-yl]methyl]pyrido[2,3-d]pyrimidin-7-one] |
| – | 26.8 nM | CNc1ncc2cc(-c3ccc(-c4cccc(C)n4)cc3Cl)c(=O)n(C[C@@H]3CN(C)CCO3)c2n1 [Example I-183, 6-[2-chloro-4-(6-methyl-2-pyridyl)phenyl]-2-(methylamino)-8-[[(2S)-4-methylmorpholin-2-yl]methyl]pyrido[2,3-d]pyrimidin-7-one] |
| – | 43.1 nM | CNc1ncc2cc(-c3ccc(-c4csc(C5CC5)n4)cc3Cl)c(=O)n(C[C@@H]3CNCCO3)c2n1 [Example I-184, 6-[2-chloro-4-(2-cyclopropylthiazol-4-yl)phenyl]-2-(methylamino)-8-[[(2S)-morpholin-2-yl]methyl]pyrido[2,3-d]pyrimidin-7-one] |
| – | 47.3 nM | CNc1ncc2cc(-c3ccc(-c4csc(C5CC5)n4)cc3Cl)c(=O)n(C[C@H]3CNCCO3)c2n1 [Example I-185, 6-[2-chloro-4-(2-cyclopropylthiazol-4-yl)phenyl]-2-(methylamino)-8-[[(2R)-morpholin-2-yl]methyl]pyrido[2,3-d]pyrimidin-7-one] |
| – | 11.9 nM | CNc1ncc2cc(-c3ccc(-c4cccc(C)n4)cc3C)c(=O)n(CC3C4CN(C)CC43)c2n1 (centres unmarked) [Example I-186, 2-(methylamino)-8-[(3-methyl-3-azabicyclo[3.1.0]hexan-6-yl)methyl]-6-[2-methyl-4-(6-methyl-2-pyridyl)phenyl]pyrido[2,3-d]pyrimidin-7-one] |
| – | 8.1 nM | Cc1cccc(-c2ccc(-c3cc4cnc(NC5COC5)nc4n(C[C@@H]4CNCCO4)c3=O)c(Cl)c2)n1 [Example I-188, 6-[2-chloro-4-(6-methyl-2-pyridyl)phenyl]-8-[[(2S)-morpholin-2-yl]methyl]-2-(oxetan-3-ylamino)pyrido[2,3-d]pyrimidin-7-one] |
| – | 25.8 nM | CNc1ncc2cc(-c3ccc(-c4nc(C)cs4)cc3Cl)c(=O)n(C[C@H]3CNCCO3)c2n1 [Example I-189, 6-[2-chloro-4-(4-methylthiazol-2-yl)phenyl]-2-(methylamino)-8-[[(2R)-morpholin-2-yl]methyl]pyrido[2,3-d]pyrimidin-7-one] |
| – | 15.2 nM | CNc1ncc2cc(-c3ccc(-c4csc(C)n4)cc3Cl)c(=O)n(C[C@H]3OC[C@H](N)CO3)c2n1 [Example I-190, 8-[(5-amino-1,3-dioxan-2-yl)methyl]-6-[2-chloro-4-(2-methylthiazol-4-yl)phenyl]-2-(methylamino)pyrido[2,3-d]pyrimidin-7-one] |
| – | 4400 nM | CNc1ncc2cc(-c3ccc(-c4ncn(C)n4)cc3Cl)c(=O)n(C[C@H]3CNCCO3)c2n1 [Example I-192, 6-[2-chloro-4-(1-methyl-1 2 4-triazol-3-yl)phenyl]-2-(methylamino)-8-[[(2R)-morpholin-2-yl]methyl]pyrido[2,3-d]pyrimidin-7-one] |
| – | 20.8 nM | CCc1cc(-c2cccc(C)n2)ccc1-c1cc2cnc(NC3COC3)nc2n(C[C@H]2CNCCO2)c1=O [Example I-193, 6-[2-ethyl-4-(6-methyl-2-pyridyl)phenyl]-8-[[(2R)-morpholin-2-yl]methyl]-2-(oxetan-3-ylamino)pyrido[2,3-d]pyrimidin-7-one] |
| – | 26.5 nM | CCc1cc(-c2cccc(C)n2)ccc1-c1cc2cnc(NC3COC3)nc2n(C[C@@H]2CNCCO2)c1=O [Example I-194] |
| – | 35.4 nM | CNc1ncc2cc(-c3ccc(-c4cccc(CO)n4)cc3Cl)c(=O)n(C[C@@H]3CNCCO3)c2n1 [Example I-195, 6-[2-Chloro-4-[6-(hydroxymethyl)-2-pyridyl]phenyl]-2-(methylamino)-8-[[(2S)-morpholin-2-yl]methyl]pyrido[2,3-d]pyrimidin-7-one] |
| – | 18.5 nM | CNc1ncc2cc(-c3ccc(-c4cccc(C)n4)cc3Cl)c(=O)n(CCOC3CN(C)C3)c2n1 [Example I-196, 6-[2-chloro-4-(6-methyl-2-pyridyl)phenyl]-2-(methylamino)-8-[2-(1-methylazetidin-3-yl)oxyethyl]pyrido[2,3-d]pyrimidin-7-one] |
| – | 1.2 nM | CCc1cc(-c2cccc(C)n2)ccc1-c1cc2cnc(NC3COC3)nc2n(CC[C@H]2OC[C@H](N)CO2)c1=O [Example I-198, 8-[2-(5-Amino-1,3-dioxan-2-yl)ethyl]-6-[2-ethyl-4-(6-methyl-2-pyridyl)phenyl]-2-(oxetan-3-ylamino)pyrido[2,3-d]pyrimidin-7-one] |
| – | 2.8 nM | CNc1ncc2cc(-c3ccc(-c4cccc(C)n4)cc3Cl)c(=O)n(CCC3(C#N)CCNC3)c2n1 (centres unmarked) [Example I-199, 3-[2-[6-[2-chloro-4-(6-methyl-2-pyridyl)phenyl]-2-(methylamino)-7-oxo-pyrido[2,3-d]pyrimidin-8-yl]ethyl]pyrrolidine-3-carbonitrile] |
| – | 7.1 nM | CNc1ncc2cc(-c3ccc(-c4cccc(C)n4)cc3Cl)c(=O)n(CCC3CNCCS3(=O)=O)c2n1 (centres unmarked) [Example I-202, 6-[2-chloro-4-(6-methyl-2-pyridyl)phenyl]-8-[2-(1,1-dioxo-1 4-thiazinan-2-yl)ethyl]-2-(methylamino)pyrido[2,3-d]pyrimidin-7-one] |
